Laboratory results as given in article PMC5487681, “Identification of Antifungal H^+-ATPase Inhibitors with Effect on Plasma Membrane Potential” (Antimicrobial Agents and Chemotherapy, 2017).
In brackets after ≈: the same amount, converted by molar mass. Read-outs that look alike come from different tables or passages of the source.

Key:
[1] = system: S. cerevisiae; test: Medium acidification assay, S. cerevisiae; type: cell-based, Saccharomyces cerevisiae; settings: Saccharomyces cerevisiae, 0.2 h; 50% inhibition of medium acidification, 12 min, n = 2 to 3
Protocol: (§1) Frozen stocks of C. albicans and S. cerevisiae were transferred to YPD agar plates and incubated overnight at 34°C. On the next day, the cells were suspended and washed twice in 50 mM KCl, pH 6.7, after pelleting of the cells by centrifugation at 3,000 × g for 5 min. The cells were then starved overnight at 4°C in the KCl solution. […] The pH drop was then monitored by determination of the fluorescent signal with excitation at 485 nm and emission at 538 nm on a Fluoroskan Ascent plate reader (Thermo Fisher Scientific) for 12 min. The rate of medium acidification was calculated on the basis of the slope of the drop in fluorescence.

[2] = system: C. albicans; test: Medium acidification assay, C. albicans; type: cell-based, Candida albicans; settings: Candida albicans, 0.2 h; 50% inhibition of medium acidification, 12 min, n = 2 to 3; read-out: IC50 for acidification, C. albicans
Protocol: as §1

[3] = system: S. cerevisiae cells; test: Intracellular ATP (iATP), S. cerevisiae; type: cell-based, Saccharomyces cerevisiae; settings: S. cerevisiae and C. albicans (Fig. 5A, B); compared to compounds 14, 19 and BM2
Protocol: S. cerevisiae and C. albicans cells were grown and washed as described above for the membrane potential and integrity assay and resuspended in SG medium (0.7% yeast nitrogen base without amino acids [BD], 50 mM succinic acid adjusted to pH 7 with Trizma base) to OD600 of 0.2 and 0.1, respectively. One hundred microliters of an S. cerevisiae or C. albicans cell suspension and 1 μl compound in DMSO were incubated for 30 min. Twenty-five microliters of the suspension was then transferred to a black 96-well plate containing 25 μl BacTiter-Glo reagent (Promega, Madison, WI) and incubated for 15 min in the dark. The luminescence was read on SpectraMax X5 (Molecular Devices, Sunnyvale, CA) plate reader with a 10 s of shaking and a 0.5 s integration time. Standard curves at 10, 100, and 1,000 nM ATP were performed with every experiment.

[4] = system: Candida spp.; test: Fungal growth inhibition, Candida spp. (text summary of Table 1); type: cell-based; settings: 38 μM highest concentration tested for compounds 4 and 8, read-out: MIC for several of the Candida spp. tested
Protocol: (§2) The following fungal isolates were used: Saccharomyces cerevisiae ATCC 9763, Candida albicans SC5314, Candida parapsilosis ATCC 22019, Candida tropicalis Ct016, Candida glabrata ATCC 90030, Aspergillus fumigatus ATCC 13073, and Aspergillus flavus ATCC MYA-1005. Frozen stocks of yeast isolates in glycerol (final concentration, 20%) were prepared by growing the cells to log phase in YPD medium at 30°C and 150 rpm. Frozen stocks of mold spores were prepared by harvesting spores from 7-day-old potato glucose agar plates in phosphate-buffered saline, 0.1% Tween 80 and aliquoting these spores in the presence of glycerol (final concentration, 20%). The cells were stored at −80°C. The cells or spores were thawed and diluted to a final concentration of 0.5 × 10^5 to 2.5 × 10^5 CFU/ml in sterile Milli-Q H2O. […] The plate was incubated for 20 to 24 h at 34°C (72 h for molds), and the OD490 was measured on a Victor X5 (PerkinElmer) plate reader. Mold growth assay plates were also visually inspected. The MIC was defined as the lowest concentration inhibiting the visual growth of the microorganism. Standard errors were typically below 5%.

[5] = Compound precipitation in the fungal growth medium; type: physicochemical; settings: fungal growth medium (RPMI), footnotes of Table 1
Protocol: as §2

[6] = molecular target: S. cerevisiae Pma1 (Saccharomyces cerevisiae, UniProt P05030); test: ATP hydrolysis assay, S. cerevisiae plasma membranes containing Pma1; type: biochemical; design: containing the full-length cDNA of the S. cerevisiae plasma membrane H^+-ATPase isoform PMA1; made in house; host or cells: S. cerevisiae RS72 (PMA1 cDNA under PMA1 promoter); also wild-type S. cerevisiae ATCC 9763
Protocol: Plasma membranes containing Pma1 were isolated from S. cerevisiae RS72 cells containing the full-length cDNA of the S. cerevisiae plasma membrane H^+-ATPase isoform PMA1 under the control of the PMA1 promoter, as described in reference.
A 100-ml overnight culture in YPD medium [10 g/liter yeast extract (BD, Sparks, MD), 20 g/liter Bacto peptone (BD), 20 g/liter D-(+)-glucose] was transferred to 1 liter YPD medium and grown at room temperature and 150 rpm for 18 h for wild-type S. cerevisiae (ATCC 9763) and 7 h for C. albicans. The cells were harvested and washed in Milli-Q H2O by centrifugation at 3,360 × g. The cells were glucose activated by the addition of 10% D-(+)-glucose for 10 min while shaking. The cells were then centrifuged at 3,360 × g for 3 min and frozen. Cells (60 to 80 g, wet weight) were then disrupted by bead beating (BioSpec, Bartlesville, OK) and processed as described in reference to prepare the plasma membranes. […] All batches were validated by ATPase hydrolysis activity, pH optimum, and orthovanadate sensitivity.
The protein activity levels were determined by measuring the amount of free phosphate produced from the ATP hydrolysis reaction. The assay was performed as described in reference. Each well contained ATPase enzyme, 2 μl of inhibitor (usually in the range of 333 to 0.01 μM) dissolved in dimethyl sulfoxide (DMSO) (Duchefa Biochemie, Haarlem, The Netherlands), and an assay buffer dependent on the enzyme for a final volume of 60 μl. Possible compound precipitation in the assay buffer was monitored using a Nephelostar plate reader measuring turbidity, and the information was taken into account in the IC50 determination. Pma1 assay buffer consisted of 20 mM 3-(N-morpholino)propanesulfonic acid (MOPS)–NaOH, pH 6.5 or 7.0, 8 mM MgSO4, 50 mM KNO3 (a vacuolar ATPase inhibitor), 25 mM sodium azide (a mitochondrial ATPase inhibitor), and 250 μM sodium molybdate (an acid phosphatase inhibitor). SERCA buffer consisted of 9 mM MOPS-NaOH, pH 7, 2.7 mM MgCl2, 90 μM CaCl2, and 72 mM KCl. Na^+,K^+-ATPase buffer consisted of 30 mM MOPS-NaOH, pH 7, 40 mM NaCl, 4 mM MgCl2, and 20 mM KCl. The concentration of protein was adjusted to obtain a signal of the optical density at 860 nm (OD860) of between 0.5 and 1.0 in the untreated samples (for all Pma1 batches, ∼1 to 2 μg/well; for SERCA and Na^+,K^+-ATPase, ∼0.1 to 0.2 μg/well). […]

[7] = system: Candida albicans SC5314; test: microbe, parasite or virus in culture; settings: Candida albicans, SC5314, pH 7, read-out: MIC C. albicans
Protocol: as §2, with “microorganism.” for “microorganism. Standard errors were typically below 5%.”

[8] = molecular target: T1, Ca^2+-ATPase (SERCA1a) (Oryctolagus cuniculus, UniProt P04191); test: ATP hydrolysis assay, SERCA; type: biochemical, rabbit
Protocol: (§3) Rabbit sarcoplasmic reticulum membranes containing sarcoplasmic endoplasmic reticulum Ca^2+-ATPase (SERCA) were kindly provided by Claus E. Olesen and Jesper V. Møller, Aarhus University, and prepared as described in reference. Porcine kidney Na^+,K^+-ATPase was kindly provided by Natalya Fedosova, Aarhus University, and prepared as described in reference.
(§4) The protein activity levels were determined by measuring the amount of free phosphate produced from the ATP hydrolysis reaction. The assay was performed as described in reference. Each well contained ATPase enzyme, 2 μl of inhibitor (usually in the range of 333 to 0.01 μM) dissolved in dimethyl sulfoxide (DMSO) (Duchefa Biochemie, Haarlem, The Netherlands), and an assay buffer dependent on the enzyme for a final volume of 60 μl. Possible compound precipitation in the assay buffer was monitored using a Nephelostar plate reader measuring turbidity, and the information was taken into account in the IC50 determination. Pma1 assay buffer consisted of 20 mM 3-(N-morpholino)propanesulfonic acid (MOPS)–NaOH, pH 6.5 or 7.0, 8 mM MgSO4, 50 mM KNO3 (a vacuolar ATPase inhibitor), 25 mM sodium azide (a mitochondrial ATPase inhibitor), and 250 μM sodium molybdate (an acid phosphatase inhibitor). SERCA buffer consisted of 9 mM MOPS-NaOH, pH 7, 2.7 mM MgCl2, 90 μM CaCl2, and 72 mM KCl. Na^+,K^+-ATPase buffer consisted of 30 mM MOPS-NaOH, pH 7, 40 mM NaCl, 4 mM MgCl2, and 20 mM KCl. The concentration of protein was adjusted to obtain a signal of the optical density at 860 nm (OD860) of between 0.5 and 1.0 in the untreated samples (for all Pma1 batches, ∼1 to 2 μg/well; for SERCA and Na^+,K^+-ATPase, ∼0.1 to 0.2 μg/well).

[9] = molecular target: T2, Na^+,K^+-ATPase (Sus scrofa, UniProt P05024); test: ATP hydrolysis assay, Na+,K+-ATPase; type: biochemical, porcine; settings: Table 1, read-out: IC50 Na^+,K^+-ATPase
T2 construct: from tissue; host or cells: porcine kidney (gift of Natalya Fedosova, Aarhus University)
Protocol: as §3, §4

[10] = molecular target: T1, Ca^2+-ATPase (SERCA1a); test: ATP hydrolysis assay, SERCA; type: biochemical, rabbit; settings: Table 1; ATP hydrolysis at pH 7.4 (compounds marked b)
[11] = system: Candida parapsilosis ATCC 22019; test: microbe, parasite or virus in culture; settings: Lodderomyces parapsilosis, ATCC22019, pH 7, read-out: MIC C. parapsilosis
Protocol: as §2, with “microorganism.” for “microorganism. Standard errors were typically below 5%.”

[12] = system: Aspergillus fumigatus ATCC 13073; test: microbe, parasite or virus in culture; settings: Aspergillus fumigatus, ATCC13073, 72 h, pH 7, read-out: MIC A. fumigatus
Protocol: as §2, with “microorganism.” for “microorganism. Standard errors were typically below 5%.”

[13] = system: Candida glabrata ATCC 90030; test: microbe, parasite or virus in culture; settings: Nakaseomyces glabratus, ATCC90030, pH 7, read-out: MIC C. glabrata
Protocol: as §2, with “microorganism.” for “microorganism. Standard errors were typically below 5%.”

[14] = system: Candida tropicalis Ct016; test: microbe, parasite or virus in culture; settings: Candida tropicalis, CT016, pH 7, read-out: MIC C. tropicalis
Protocol: as §2, with “microorganism.” for “microorganism. Standard errors were typically below 5%.”

[15] = system: S. cerevisiae cells; design: method as in PMID 19413991; settings: cited from earlier work
[16] = system: Saccharomyces cerevisiae ATCC 9763; settings: pH 3; cited from earlier work
[17] = Table 1, ATP hydrolysis at pH 7, 2 to 3 experiments, read-out: IC50 Pma1

T1 sequence (P04191 1-994 isoform P04191-2): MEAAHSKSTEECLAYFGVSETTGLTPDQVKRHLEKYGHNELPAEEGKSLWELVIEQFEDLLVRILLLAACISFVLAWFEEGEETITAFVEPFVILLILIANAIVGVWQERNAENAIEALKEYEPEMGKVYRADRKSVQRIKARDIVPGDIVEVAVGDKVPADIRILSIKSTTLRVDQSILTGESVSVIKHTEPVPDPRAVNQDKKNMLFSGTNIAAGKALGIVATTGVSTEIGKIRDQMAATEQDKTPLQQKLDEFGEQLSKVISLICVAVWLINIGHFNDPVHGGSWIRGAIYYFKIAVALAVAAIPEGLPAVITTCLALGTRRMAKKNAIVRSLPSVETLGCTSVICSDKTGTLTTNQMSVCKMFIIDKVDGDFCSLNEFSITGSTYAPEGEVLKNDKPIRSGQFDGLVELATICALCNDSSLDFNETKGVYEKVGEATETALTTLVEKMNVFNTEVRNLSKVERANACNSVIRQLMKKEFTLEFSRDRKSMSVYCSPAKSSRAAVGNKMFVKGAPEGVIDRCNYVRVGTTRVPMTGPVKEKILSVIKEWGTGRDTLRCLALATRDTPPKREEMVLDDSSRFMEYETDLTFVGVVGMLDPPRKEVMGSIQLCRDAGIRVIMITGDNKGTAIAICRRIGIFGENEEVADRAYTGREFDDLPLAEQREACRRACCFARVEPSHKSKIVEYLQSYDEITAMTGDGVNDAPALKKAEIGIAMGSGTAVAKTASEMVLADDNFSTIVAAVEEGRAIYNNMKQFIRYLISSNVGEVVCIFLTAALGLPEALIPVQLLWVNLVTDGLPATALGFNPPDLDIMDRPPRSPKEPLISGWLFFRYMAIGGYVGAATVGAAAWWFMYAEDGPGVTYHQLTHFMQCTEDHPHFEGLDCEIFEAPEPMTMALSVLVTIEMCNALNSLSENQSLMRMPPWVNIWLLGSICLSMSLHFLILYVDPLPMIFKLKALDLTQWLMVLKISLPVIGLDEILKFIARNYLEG
S. cerevisiae Pma1, sequence (P05030 whole entry, canonical isoform): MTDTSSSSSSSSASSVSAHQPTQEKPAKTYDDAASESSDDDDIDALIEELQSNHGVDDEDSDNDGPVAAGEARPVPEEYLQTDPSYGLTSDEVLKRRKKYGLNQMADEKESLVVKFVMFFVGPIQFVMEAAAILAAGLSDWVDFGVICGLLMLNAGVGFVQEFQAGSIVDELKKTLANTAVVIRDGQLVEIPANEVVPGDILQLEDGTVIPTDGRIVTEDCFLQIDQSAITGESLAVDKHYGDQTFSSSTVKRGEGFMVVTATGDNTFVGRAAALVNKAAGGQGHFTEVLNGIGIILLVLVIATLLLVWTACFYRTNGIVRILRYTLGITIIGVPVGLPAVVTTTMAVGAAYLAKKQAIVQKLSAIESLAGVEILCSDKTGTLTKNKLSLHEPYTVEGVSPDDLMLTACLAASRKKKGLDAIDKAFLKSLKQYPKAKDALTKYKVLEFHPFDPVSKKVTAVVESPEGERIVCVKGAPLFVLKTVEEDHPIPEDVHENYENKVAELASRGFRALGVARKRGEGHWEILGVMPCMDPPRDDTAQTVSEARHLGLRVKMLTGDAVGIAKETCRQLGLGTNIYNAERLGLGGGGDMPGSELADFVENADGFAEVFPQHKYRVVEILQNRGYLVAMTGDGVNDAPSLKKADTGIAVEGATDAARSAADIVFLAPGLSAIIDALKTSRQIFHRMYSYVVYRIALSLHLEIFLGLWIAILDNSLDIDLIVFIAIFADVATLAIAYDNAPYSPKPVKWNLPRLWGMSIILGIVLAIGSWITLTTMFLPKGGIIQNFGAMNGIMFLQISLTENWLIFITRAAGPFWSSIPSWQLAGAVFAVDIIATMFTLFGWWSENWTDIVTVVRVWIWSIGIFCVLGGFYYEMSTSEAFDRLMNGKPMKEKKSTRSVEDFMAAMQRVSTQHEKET

SMILES: C[C@@H]1[C@H](O)[C@@H](C)/C=C/C=C/C=C/C=C/C=C/C=C/C=C/[C@H](O[C@@H]2O[C@H](C)[C@@H](O)[C@H](N)[C@@H]2O)C[C@@H]2O[C@](O)(C[C@@H](O)C[C@@H](O)[C@H](O)CC[C@@H](O)C[C@@H](O)CC(=O)O[C@H]1C)C[C@H](O)[C@H]2C(=O)O [AMB, amphotericin B, reference compound]
- IC50 [1]: > 75 µM
- IC50 [2]: > 75 µM

SMILES: N#CC(C#N)=NNc1cccc(Cl)c1 [CCCP, carbonyl cyanide m-chlorophenylhydrazone, reference compound]
- Effects on iATP levels, in words [3]: minimal effects

SMILES: O=C1[C@@H]2C(c3ccc(Br)cc3)=NN(c3ccccc3)[C@@H]2C(=O)N1c1ccccc1F [Compound 2]
- MIC [4]: > 150 µM
- Compound precipitation observed in the growth medium at concentrations down to [5]: d Compound precipitation was observed in the growth medium at concentrations down to 48 μM.
- IC50 [6, 17]: 2.1 ± 1.3 µM
- MIC [7]: > 150 µM
- IC50 [8]: > 105 µM
- IC50 ([9]; ATP hydrolysis at pH 7): > 105 µM

SMILES: O=C1C=CC(=O)N1c1cccc2ccccc12 [Compound 10]
- IC50 [10]: 3.4 ± 1.8 µM
- IC50 ([6]; IC50 Pma1, Table 1, ATP hydrolysis at pH 6.5 (compounds marked b), 2 to 3 experiments): 9.4 ± 1.7 µM
- IC50 ([6]; IC50 for Pma1, ATP hydrolysis, S. cerevisiae Pma1): < 25 µM
- MIC [11]: 116 µM (≈ 25.9 µg/mL)
- MIC [12]: 99 µM (≈ 22.1 µg/mL)
- MIC [13]: 12 µM (≈ 2.68 µg/mL)
- MIC [14]: 15 µM (≈ 3.35 µg/mL)
- MIC [7]: 88 µM (≈ 19.6 µg/mL)
- IC50 ([9]; ATP hydrolysis at pH 7.4 (compounds marked b)): > 105 µM

SMILES: CN1CCc2c(sc3c2C(=O)NC(c2ccc(-c4cccc(Cl)c4)o2)N3)C1 (centres unmarked) [Compound 13]
- IC50 ([6]; ATP hydrolysis, S. cerevisiae Pma1, read-out: IC50 for Pma1): < 25 µM
- IC50 [6, 17]: 22.6 ± 12.4 µM
- MIC [11]: 47 µM (≈ 18.8 µg/mL)
- MIC [13]: 31 µM (≈ 12.4 µg/mL)
- MIC [14]: > 150 µM
- MIC [7]: 23 µM (≈ 9.2 µg/mL)
- IC50 [8]: 22 ± 3 µM
- IC50 ([9]; ATP hydrolysis at pH 7): 30.6 ± 11.1 µM

SMILES: CC[C@H]1/C=C/C=C/C[C@@H](C)[C@H](O)[C@@](C)(O)C(=O)[C@@H](C)[C@H](O)[C@@H](C)C(=O)[C@@H](C)[C@H](O)[C@@H](C)/C=C/C(=O)O[C@@H]2[C@H](C)[C@H](CC1)O[C@]1(CC[C@H](C)[C@H](C[C@@H](C)O)O1)[C@H]2C [oligomycin, reference compound]
- Effects on iATP levels, in words [3]: minimal effects

SMILES: COc1ccc2[nH]c([S+]([O-])Cc3ncc(C)c(OC)c3C)nc2c1 (centres unmarked) [omeprazole]
- Increase in iATP levels, S. cerevisiae [15]: 36%
- Concentration required for full growth inhibition of Saccharomyces cerevisiae [16]: 430 µM
